What is called IC50 is the concentration that gives 50% inhibition. Low readings indicate greater potency in that assay, high ones weaker potency in that assay. The term Ki denotes the dissociation constant of the complex between target and ligand, obtained from inhibition or displacement. A higher Ki goes with a looser hold on the target.

Molecules are shown by their SMILES.

The text below walks through data of publication PMC6941357, “An in vitro toolbox to accelerate anti-malarial drug discovery and development” (Malaria Journal, 2020).

One data set in a line: physchem. The note with it: for An (absorption number): Peff × tres/R, minimum 1; for Ssi (estimated solubility in the small intestine): based on measured FaSSIF solubility; for Permeability classification: based on ref 80 and control compounds; for Predicted human Peff: from Caco-2 Papp via calibration plot. An excerpt:
Predicted Peff values were obtained from a calibration plot of literature Peff values vs measured Caco-2 Papp using either buffer or plasma as the transport medium (see Results section).

Another data set has as its target T1, CYP1A2 (Homo sapiens, UniProt P05177).
T1 sequence (P05177 1-516): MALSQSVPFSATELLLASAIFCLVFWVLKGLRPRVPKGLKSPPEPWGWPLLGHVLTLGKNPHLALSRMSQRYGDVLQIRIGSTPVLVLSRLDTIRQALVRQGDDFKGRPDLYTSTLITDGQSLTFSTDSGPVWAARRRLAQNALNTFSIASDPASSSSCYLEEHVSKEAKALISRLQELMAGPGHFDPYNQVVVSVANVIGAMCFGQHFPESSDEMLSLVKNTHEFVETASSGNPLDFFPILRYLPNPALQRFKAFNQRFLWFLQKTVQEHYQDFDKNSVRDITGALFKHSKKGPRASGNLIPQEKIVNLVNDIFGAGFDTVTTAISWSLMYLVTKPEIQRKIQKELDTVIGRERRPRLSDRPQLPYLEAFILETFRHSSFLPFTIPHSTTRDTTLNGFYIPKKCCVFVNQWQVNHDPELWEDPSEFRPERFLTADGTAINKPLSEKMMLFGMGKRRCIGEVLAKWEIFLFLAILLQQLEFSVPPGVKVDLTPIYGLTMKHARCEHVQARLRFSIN
Briefly: in vitro. As to conditions: microsomes. As to the method:
(§1) The CYP inhibition assay was based on a previous publication with minor modifications. The method uses human liver microsomes and a substrate-specific interaction approach which relies on the formation of a metabolite that is mediated by a specific CYP isoform. The specific CYP-mediated metabolic pathways, substrates, substrate Km values, positive control inhibitors and specific incubation conditions are shown in Additional file 1: Table S4. […] Samples were quenched by the addition of ice-cold acetonitrile containing diazepam as the analytical internal standard. Concentrations of the substrate-specific metabolites in quenched samples were determined by LC–MS (Additional file 1: Table S5) relative to calibration standards prepared in quenched microsomal matrix.
(§2) The inhibitory effect of each test compound and positive control inhibitor was based on the reduction in the formation of the specific CYP-mediated metabolite (represented as percent inhibition of enzyme activity) relative to metabolite formation in the absence of inhibitor (i.e. control for maximal enzyme activity). […] The Km was determined under the same incubation conditions by measuring the rate of metabolite formation (pmol/min/mg protein) as a function of substrate concentration (Additional file 1: Table S4).

The target in a further data set is CYP2C19 (Homo sapiens, UniProt P33261). The data set is described as follows: in vitro. The note with it: microsomes. The procedure:
as §1, §2

Another data set deals with CYP2C9 (Homo sapiens, UniProt P11712). Briefly: in vitro. The note with it: microsomes. The procedure: as §1, §2
Chain of CYP2C9 (P11712 whole entry): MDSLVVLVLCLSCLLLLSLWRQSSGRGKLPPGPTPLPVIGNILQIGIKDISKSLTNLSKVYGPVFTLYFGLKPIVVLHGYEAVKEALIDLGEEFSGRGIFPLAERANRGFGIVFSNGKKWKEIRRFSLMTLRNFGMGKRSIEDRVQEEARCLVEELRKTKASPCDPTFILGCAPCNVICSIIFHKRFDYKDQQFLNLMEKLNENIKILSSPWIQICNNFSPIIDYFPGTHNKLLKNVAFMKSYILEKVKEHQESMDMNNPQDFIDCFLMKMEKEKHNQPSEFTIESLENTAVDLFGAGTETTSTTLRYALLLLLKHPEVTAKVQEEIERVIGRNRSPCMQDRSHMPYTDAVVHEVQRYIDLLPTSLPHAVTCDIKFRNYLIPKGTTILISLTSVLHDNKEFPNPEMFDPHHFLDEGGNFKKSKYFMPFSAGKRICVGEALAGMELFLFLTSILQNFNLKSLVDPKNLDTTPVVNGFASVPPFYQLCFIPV
The target in another data set is CYP2D6 (Homo sapiens, UniProt P10635). The data set is described as follows: in vitro. As to conditions: microsomes. As to the method:
as §1, §2

The next data set has as its target CYP3A4 (Homo sapiens, UniProt P08684). Briefly: in vitro. The note with it: microsomes. The procedure:
as §1, §2

Chain of CYP2C19 (P33261 whole entry): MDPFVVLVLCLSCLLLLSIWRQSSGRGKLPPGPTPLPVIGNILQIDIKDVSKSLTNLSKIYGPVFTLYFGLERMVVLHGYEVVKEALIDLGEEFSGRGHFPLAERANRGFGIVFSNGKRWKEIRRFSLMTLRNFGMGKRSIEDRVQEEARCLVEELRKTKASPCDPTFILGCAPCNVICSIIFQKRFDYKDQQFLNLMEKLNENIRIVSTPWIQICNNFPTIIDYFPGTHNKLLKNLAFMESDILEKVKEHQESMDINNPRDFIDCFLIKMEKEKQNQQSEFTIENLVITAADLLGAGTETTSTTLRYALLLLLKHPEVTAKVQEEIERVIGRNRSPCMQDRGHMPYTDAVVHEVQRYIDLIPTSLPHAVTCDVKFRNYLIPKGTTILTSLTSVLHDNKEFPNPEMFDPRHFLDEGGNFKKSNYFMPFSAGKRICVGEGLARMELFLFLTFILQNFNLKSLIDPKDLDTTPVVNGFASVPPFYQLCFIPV
Chain of CYP3A4 (P08684 whole entry): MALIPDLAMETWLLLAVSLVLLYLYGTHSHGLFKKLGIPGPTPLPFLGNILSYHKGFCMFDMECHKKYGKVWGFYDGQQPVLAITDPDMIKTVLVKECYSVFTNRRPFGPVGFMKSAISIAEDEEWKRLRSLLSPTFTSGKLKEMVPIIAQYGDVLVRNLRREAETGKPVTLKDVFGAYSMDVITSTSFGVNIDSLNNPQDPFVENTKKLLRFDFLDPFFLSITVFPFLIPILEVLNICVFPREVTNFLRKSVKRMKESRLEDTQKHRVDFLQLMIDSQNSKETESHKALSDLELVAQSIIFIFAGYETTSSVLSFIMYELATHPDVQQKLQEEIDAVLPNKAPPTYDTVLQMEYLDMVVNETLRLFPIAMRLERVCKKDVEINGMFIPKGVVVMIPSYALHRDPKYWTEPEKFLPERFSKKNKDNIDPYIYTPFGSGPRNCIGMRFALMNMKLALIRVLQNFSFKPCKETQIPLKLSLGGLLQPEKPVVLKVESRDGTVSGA
Chain of CYP2D6 (P10635 whole entry): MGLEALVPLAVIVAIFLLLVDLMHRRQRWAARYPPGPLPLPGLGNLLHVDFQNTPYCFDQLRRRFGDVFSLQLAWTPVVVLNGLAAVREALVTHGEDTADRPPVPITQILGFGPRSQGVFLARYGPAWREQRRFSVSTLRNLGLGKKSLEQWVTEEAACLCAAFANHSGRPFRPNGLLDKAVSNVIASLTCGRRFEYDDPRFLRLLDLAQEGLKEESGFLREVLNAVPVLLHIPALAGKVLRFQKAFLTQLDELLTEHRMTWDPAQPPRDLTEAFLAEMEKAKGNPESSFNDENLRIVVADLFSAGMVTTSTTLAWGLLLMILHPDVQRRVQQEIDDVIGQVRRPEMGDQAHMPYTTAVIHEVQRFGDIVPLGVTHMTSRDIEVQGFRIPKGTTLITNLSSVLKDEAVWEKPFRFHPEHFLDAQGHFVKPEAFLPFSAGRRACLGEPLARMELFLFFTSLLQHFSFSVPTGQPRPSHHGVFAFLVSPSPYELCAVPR

`COc1cc2[nH]c(C)c(-c3ccc(Oc4ccc(OC(F)(F)F)cc4)cc3)c(=O)c2cc1Cl` [ELQ300]: in “physchem”, the SLAD is recorded as 3 mg, the “An (absorption number)” value is listed as 13, the “Ssi (estimated solubility in the small intestine)” value was 0.520 µg/mL and the Permeability classification entry is “High (> 85% absorption (high))”. In addition, the “Predicted human Peff” value in the data set “physchem” is on record as 11 10^−4 cm/s. For the same molecule, at CYP1A2, the “CYP1A2 % inhibition at max conc” value is recorded as “nmi” and the IC50 is over 20 µM. In addition, on CYP2C19, the “CYP2C19 % inhibition at max conc” value is listed as 41% and the IC50 is over 20 µM. For the same molecule, at CYP2C9, the IC50 came to 7.5 µM and the Ki came to 5.4 µM. Further, at CYP2D6, the IC50 turned out to be 8 µM and affinity was put at a Ki of 5 µM. Besides, on CYP3A4, the “CYP3A4 (test) % inhibition at max conc” value is “nmi” and the IC50 was over 20 µM.
As for `CC(C)(C)NCc1cc(C(C)(C)C)cc(-c2cnc(C(F)(F)F)c(F)c2)c1O` [JPC3210], in “physchem”, the SLAD is reported as 51 mg, the “An (absorption number)” value is given as 13, the “Ssi (estimated solubility in the small intestine)” value is 7.60 µg/mL and the Permeability classification result is given as “High (> 85% absorption (high))”. Further, the “Predicted human Peff” value in the data set “physchem” is reported as 11 10^−4 cm/s. In addition, at CYP1A2, the “CYP1A2 % inhibition at max conc” value is listed as “nmi” and the IC50 was over 20 µM. In addition, on CYP2C19, the “CYP2C19 % inhibition at max conc” value is given as “nmi” and the IC50 was over 20 µM. For the same molecule, on CYP2C9, the “CYP2C9 % inhibition at max conc” value is “nmi” and the IC50 was over 20 µM. On CYP2D6, this molecule showed an IC50 of 0.7 µM and an inhibitory constant (Ki) of 0.43 µM. Moreover, on CYP3A4, the “CYP3A4 (midaz) % inhibition at max conc” value is on record as “nmi”, the “CYP3A4 (test) % inhibition at max conc” value is given as “nmi” and the IC50 was over 20 µM.
As for `CC(C)(C)NCc1cc(Nc2ccnc3cc(Cl)ccc23)c2c(c1O)CCCC2` [Naphthoquine], in “physchem”, the SLAD came to 2250 mg, the “An (absorption number)” value was 11, the “Ssi (estimated solubility in the small intestine)” value is recorded as 410 µg/mL and the Permeability classification entry is “High (> 85% absorption (high))”. The “Predicted human Peff” value in the data set “physchem” is 9.2 10^−4 cm/s. Further, on CYP1A2, the “CYP1A2 % inhibition at max conc” value was found to be 33% and the IC50 was over 20 µM. In addition, on CYP2C19, the “CYP2C19 % inhibition at max conc” value is listed as “nmi” and the IC50 is over 20 µM. At CYP2C9, the “CYP2C9 % inhibition at max conc” value was “nmi” and the IC50 was over 20 µM. On CYP2D6, this molecule registered an IC50 of 1.1 µM and a Ki of 0.68 µM. On CYP3A4, the “CYP3A4 (midaz) % inhibition at max conc” value is 41%, the “CYP3A4 (test) % inhibition at max conc” value was 38% and the IC50 is over 20 µM.
Turning to `CS(=O)(=O)O.FC1CCN(CCOc2ccc(C3CCC4(CC3)OOC3(OO4)C4CC5CC(C4)CC3C5)cc2)CC1` (stereo not shown) [TDD-E209], in the data set “physchem”, the SLAD amounted to 579 mg, the “An (absorption number)” value is reported as 13, the “Ssi (estimated solubility in the small intestine)” value is given as 87.0 µg/mL and the Permeability classification result was “High (> 85% absorption (high))”. Also, the “Predicted human Peff” value in the data set “physchem” was 11 10^−4 cm/s.
With `CCc1nc(N)nc(N)c1OCCCOc1ccccc1CCC(=O)O.Cl` [P218], in “physchem”, the SLAD stood at 204 mg, the “An (absorption number)” value is reported as 1.0, the “Ssi (estimated solubility in the small intestine)” value is 408 µg/mL and the Permeability classification result is “Low (< 50% absorption (low))”. Further, the “Predicted human Peff” value in “physchem” was 0.24 10^−4 cm/s. Besides, on CYP1A2, the “CYP1A2 % inhibition at max conc” value was “nmi” and the IC50 is over 20 µM. Moreover, on CYP2C19, the “CYP2C19 % inhibition at max conc” value was “nmi” and the IC50 is over 20 µM. In addition, at CYP2C9, the “CYP2C9 % inhibition at max conc” value is given as “nmi” and the IC50 was over 20 µM. At CYP2D6, the “CYP2D6 % inhibition at max conc” value is recorded as “nmi” and the IC50 is over 20 µM. On CYP3A4, the “CYP3A4 (midaz) % inhibition at max conc” value is on record as “nmi”, the “CYP3A4 (test) % inhibition at max conc” value is “nmi” and the concentration for half-maximal inhibition (IC50) was over 20 µM.
For `CN(C)C[c-]1cccc1CNc1ccnc2cc(Cl)ccc12.[Fe+2].c1cc[cH-]c1` (stereo not shown) [Ferroquine], in the data set “physchem”, the “An (absorption number)” value was 2.7, the “Ssi (estimated solubility in the small intestine)” value is 320 µg/mL, the Permeability classification entry is recorded as “High (> 85% absorption (high))” and the “Predicted human Peff” value is given as 2.2 10^−4 cm/s. Also, the SLAD in the data set “physchem” (Ssi × V (500 mL) × Mp) is reported as 426 mg. On CYP1A2, the “CYP1A2 % inhibition at max conc” value is reported as “nmi” and the half-maximal inhibitory concentration (IC50) was over 20 µM. On CYP2C19, the “CYP2C19 % inhibition at max conc” value was “nmi” and the IC50 was over 20 µM. On CYP2C9, the “CYP2C9 % inhibition at max conc” value is “nmi” and the IC50 was over 20 µM. For the same molecule, at CYP2D6, the IC50 was determined as 0.83 µM and the Ki is 0.52 µM. On CYP3A4, the “CYP3A4 (test) % inhibition at max conc” value was 42% and the Ki is 5.2 µM.
On to `COc1cc(N[C@H](C)CCCN)c2nccc(C)c2c1Oc1ccc(Cl)c(Cl)c1` [NPC1161B], for which, on CYP1A2, half-maximal inhibition (IC50) required 6.5 µM and the affinity corresponds to a Ki of 3.8 µM. On CYP2C19, this molecule gave an IC50 of 9.6 µM and a Ki of 5.7 µM. At CYP2C9, the “CYP2C9 % inhibition at max conc” value was found to be 37% and the IC50 is over 20 µM. Also, at CYP2D6, the “CYP2D6 % inhibition at max conc” value was 39% and the IC50 is over 20 µM. Moreover, at CYP3A4, the “CYP3A4 (midaz) % inhibition at max conc” value was 37% and the Ki turned out to be 8.2 µM.
`CCN(CC)CCCNc1ccnc2cc(Cl)ccc12.Cl.Cl` [AQ-13]: in the data set “physchem”, the SLAD was over 2250 mg, the “An (absorption number)” value is 2.2, the “Ssi (estimated solubility in the small intestine)” value is recorded as over 2000 µg/mL and the Permeability classification entry was “High (> 85% absorption (high))”. The “Predicted human Peff” value in the data set “physchem” is reported as 1.9 10^−4 cm/s. For the same molecule, on CYP1A2, the “CYP1A2 % inhibition at max conc” value is given as “nmi” and the IC50 is over 20 µM. Also, on CYP2C19, the “CYP2C19 % inhibition at max conc” value is given as “nmi” and the IC50 is over 20 µM. Further, on CYP2C9, the “CYP2C9 % inhibition at max conc” value is listed as “nmi” and the 50% inhibitory concentration (IC50) is over 20 µM. At CYP2D6, this molecule registered an IC50 of 13 µM and a Ki of 8.3 µM. Further, on CYP3A4, the “CYP3A4 (midaz) % inhibition at max conc” value was “nmi”, the “CYP3A4 (test) % inhibition at max conc” value was “nmi” and the IC50 is over 20 µM.
Take `Cc1cc(Nc2ccc(C(F)(F)F)nc2)n2nc(C(C)(F)F)nc2n1` [DSM421]: in the data set “physchem”, the SLAD is reported as 182 mg, the “An (absorption number)” value was 3.9, the “Ssi (estimated solubility in the small intestine)” value is on record as 93.0 µg/mL and the Permeability classification entry was “High (> 85% absorption (high))”. In addition, the “Predicted human Peff” value in the data set “physchem” is 3.3 10^−4 cm/s.
For `O=C(NCCN1CCCC1)c1cc(-c2ccc(CN3CCOCC3)cc2)nc2ccc(F)cc12` [M5717], in the data set “physchem”, the SLAD was over 6050 mg, the “An (absorption number)” value is recorded as 4.0, the “Ssi (estimated solubility in the small intestine)” value was over 3000 µg/mL and the Permeability classification entry is recorded as “High (> 85% absorption (high))”. Also, the “Predicted human Peff” value in the data set “physchem” was 3.4 10^−4 cm/s. Moreover, on CYP1A2, the “CYP1A2 % inhibition at max conc” value was “nmi” and the IC50 was over 20 µM. Also, on CYP2C19, the “CYP2C19 % inhibition at max conc” value is recorded as “nmi” and the IC50 is over 20 µM. Further, at CYP2C9, the “CYP2C9 % inhibition at max conc” value is “nmi” and the IC50 is over 20 µM. Also, at CYP2D6, the “CYP2D6 % inhibition at max conc” value is reported as “nmi” and the IC50 is over 20 µM. Further, at CYP3A4, the “CYP3A4 (midaz) % inhibition at max conc” value was “nmi”, the “CYP3A4 (test) % inhibition at max conc” value is “nmi” and the IC50 is over 20 µM.
